In patent publication US7321027B2, “Small technetium-99m and rhenium labeled agents and methods for imaging tumors” (President and Fellows of Harvard College, priority 2000, dated 2008):

Tests used:
[1] = test system: B16/F0 murine melanoma cells; assay: In-vitro tumor-cell uptake, melanoma cells; type: cell-based; details: 37° C., B16/F0 cell line
Experimental: (§1) In-Vitro Tumor-Uptake Studies. Tumor-cell uptake studies in B16/F0 murine melanoma cells were performed with complexes Tc-(Compound A-D and H-M) at 37° C. and 4° C. Additionally, tumor-cell uptake of complex Tc-(Compound A) was investigated in another rapidly dividing MCF-7 human breast cancer cell line.
In-Vitro Cell Studies. Murine B16/F0 melanoma cells and human MCF-7 breast cancer cells were obtained from American Type Culture Collection, Manassas Va., (ATCC) and were grown in T-175 flasks in 14 mL Dulbecco's Modified Eagle Medium (D-MEM; Gibco, Life Technology, Gaithersburg, Md.) containing 4500 mg/L D-glucose, L-glutamine, and pyridoxine hydrochloride, 110 mg/L sodium pyruvate, 10% fetal bovine serum (FBS), 0.2% gentamicin and 0.5% penicillin-streptomycin solution. All cells were harvested from cell culture flasks by trypsinization with 1 mL trypsin-EDTA solution (0.25% trypsin, 1 mM EDTA×4 Na) (Gibco). After being washed with 12 mL Dulbecco's Phosphate-Buffered Saline (PBS) (Gibco), pH 7.2 (Ca^2+- and Mg^2+-free; g/L KCl, 0.20; KH2PO4, 0.20; NaCl, 8.00; Na2HPO4, 1.15), the cells were counted and resuspended in 8 mL S-MEM (Gibco) (Ca^2+ free, with reduced Mg^2+ content) and stored at 4° C. until use.
For in-vitro tumor-cell accumulation studies, 5×10^6 cells in polypropylene test tubes were incubated at 37° C. or 4° C., with intermittent agitation with 1-2 μCi (5 μL) ^99mTc-complex Tc-(Compound A-D) in a total volume of 350 μL S-MEM. At appropriate time intervals the tubes were vortexed and 8-μL samples were layered on 350 μL cold FBS in a 400-μL Eppendorf microcentrifuge tube. After centrifugation at 15,000 rpm for 2 min, the tubes were frozen in a dry ice-acetone bath. While still frozen, the bottom tip of the microcentrifuge tube containing the cell pellet was cut and placed in a counting tube. The remaining portion of the tube with the supernatant was placed in a separate counting tube. Both fractions were counted for radioactivity in a γ-counter (WALLAC, 1480 WIZARD 3″™). The amount of supernatant in the cell pellet was determined to be <1% in separate experiments. The percentage cell uptake of the ^99mTc-complex was calculated as: % uptake=[cpm(pellet)]/[cpm(pellet)+cpm(supernatant)]×100

[2] = test system: MCF-7 human breast cancer cell line; assay: In-vitro tumor-cell uptake, breast cancer cells; type: cell-based; details: 37° C., MCF-7 cell line
Experimental: as §1
In-Vitro Cell Studies. […] After being washed with 12 mL Dulbecco's Phosphate-Buffered Saline (PBS) (Gibco), pH 7.2 (Ca^2+- and Mg^2+-free; g/L KCl, 0.20; KH2PO4, 0.20; NaCl, 8.00; Na2HPO4, 1.15), the cells were counted and resuspended in 8 mL S-MEM (Gibco) (Ca^2+ free, with reduced Mg^2+ content) and stored at 4° C. until use.
For in-vitro tumor-cell accumulation studies, 5×10^6 cells in polypropylene test tubes were incubated at 37° C. or 4° C., with intermittent agitation with 1-2 μCi (5 μL) ^99mTc-complex Tc-(Compound A-D) in a total volume of 350 μL S-MEM. […] Both fractions were counted for radioactivity in a γ-counter (WALLAC, 1480 WIZARD 3″™). The amount of supernatant in the cell pellet was determined to be <1% in separate experiments. The percentage cell uptake of the ^99mTc-complex was calculated as: % uptake=[cpm(pellet)]/[cpm(pellet)+cpm(supernatant)]×100

[3] = Determination of lipophilicity and pKa values by HPLC; type: physicochemical; details: HPLC method
Experimental: The physicochemical parameters of the rhenium complexes, i.e. lipophilicity log P, log D(pH 7.4), and pKa (Table 2) were determined using HPLC methods (Braumann, T.; Grimme, L. H. Determination of Hydrophobic Parameters for Pyridazinone Herbicides by Liquid-Liquid Partition and Reversed-Phase High-Performance Liquid Chromatography. J. Chromatogr. 1981, 206, 7-15; Stytli, C.; Theobald, A. E. Determination of Ionization Constants of Radiopharmaceuticals in Mixed Solvents by HPLC. Appl. Radiat. Isot., 1987, 38, 701-708; Johannsen, B.; Scheunemann, M.; Spies, H.; Brust, P.; Wober, J.; Syhre, R.; Pietzsch, H.-J. Technetium(V) and Rhenium(V) Complexes for 5-HT2A Serotonin Receptor Binding: Structure-Affinity Considerations. Nucl. Med. Biol., 1996, 23, 429-438; and Johannsen, B.; Berger, R.; Brust, P.; Pietzsch, H.-J; Scheunemann, M.; Seifert, S.; Spies, H.; Syhre, R. Structural Modification of Receptor-Binding Technetium-99m Complexes in Order to Improve Brain Uptake. Eur. J. Nucl. Med. 1997, 24, 316-319). […] Since log D(pH 7.4) is a composite measure of log P and pKa, the log D(PH 7.4) of Re-Compound B (1.9) is also higher than that of Re-Compound A (1.1). […] With pKa values >9 for complexes Re-Compound C and Re-Compound D, the resulting low log D(PH 7.4) values of −0.5 (Re-Compound C) and 0.7 (Re-Compound D) are not surprising, since the complexes would exist in a protonated form at pH 7.4.
Determination of Lipophilicity and pKa Values. The lipophilicity and pKa values of all complexes were determined using HPLC methods described previously (Stylli, C.; Theobald, A. E. Determination of Ionization Constants of 4 Radiopharmaceuticals in Mixed Solvents by HPLC. Appl. Radiat. Isot., 1987, 38, 701-708; Johannsen, B.; Scheunemann, M.; Spies, H.; Brust, P.; Wober, J.; Syhre, R.; Pietzsch, H.-J. Technetium(V) and Rhenium(V) Complexes for 5-HT2A Serotonin Receptor Binding: Structure-Affinity Considerations. Nucl. Med. Biol., 1996, 23, 429-438; and Johannsen, B.; Berger, R.; Brust, P.; Pietzsch, H.-J.; Scheunemann, M.; Seifert, S.; Spies, H.; Syhre, R. Structural Modification of Receptor-Binding Technetium-99m Complexes in Order to Improve Brain Uptake. Eur. J. Nucl. Med. 1997, 24, 316-319). […] The mobile phase was acetonitrile:phosphate buffer (0.01 M), 3:1, v/v, with the aqueous buffer adjusted to the desired pH between 3 and 11. The capacity factor (k′) was calculated for each determination (Braumann, T.; Grimme, L. H. Determination of Hydrophobic Parameters for Pyridazinone Herbicides by Liquid-Liquid Partition and Reversed-Phase High-Performance Liquid Chromatography. J. Chromatogr. 1981, 206, 7-15; El Tayer, N.; van der Waterbeemd, H.; Testa, B. Lipophilicity Measurements of Protonated Basic Compounds by Reversed-Phase High-Performance Liquid Chromatography. II. Procedure for the Determination of a Lipophilic Index Measured by Reversed-Phase High Performance Liquid Chromatography. J. Chromatogr. 1985, 320, 305-312; and Minick, D. J.; Frenz, J. H.; Patrick, M. A.; Brent, D. A. A Comprehensive Method for Determining Hydrophobicity Constants by Reversed-Phase High-Performance Liquid Chromatography. J. Med. Chem., 1988, 31, 1923-1933) and the partition coefficient at a given pH (D or log D) were calculated from the equation: log D=a log k′+b where the parameters a and b are predetermined using standard amines. The fitted points of inflection from the sigmoidal DHPLC/pH profiles permit calculation of the pKHPLC(Stylli, C.; Theobald, A. E. Determination of Ionization Constants of Radiopharmaceuticals in Mixed Solvents by HPLC. Appl. Radiat. Isot., 1987, 38, 701-708). The aqueous ionization constants pKa were calculated from the pKHPLC values after correction with a predetermined correction factor obtained using standard amine compounds. Log P values of the neutral complexes were estimated from the respective upper plateau of the sigmoidal log D/pH curve in the alkaline range.

| pKa [3] | log D(pH 7.4) [3] | log P [3] | SMILES | maximal cell uptake [1] [%] | maximum cell uptake [2] [%] |
| --- | --- | --- | --- | --- | --- |
| 7.7 | ≈ 1 |  | CCN(CC)CCN1CC[S][99Tc]2(=[O])[S]CC[N]2C(=O)C1 (centres unmarked) [Tc-(Compound A)] | 43 | 6 |
| 7.7 | 1.9 | 3.3 | CCCCN(CCCC)CCN1CC[S][99Tc]2(=[O])[S]CC[N]2C(=O)C1 (centres unmarked) [Tc-(Compound B)] | 12 |  |
